Paper PMC12598805, “Crystal Structure–Activity Relationship of Some MeO Phenylacrylonitriles: Dual Antimicrobial–Cytotoxic Effects and in Silico Perspectives” (ChemistryOpen, 2025)
Values after ≈ are worked out from the molar mass of the structure shown. Read-outs that look alike come from different tables or passages of the source. One block for each compound: values may come before it.

Assays:
[1] = system: mouse fibroblast cells (L929, CCL‐1); experiment: Cytotoxicity on healthy cells, CCK8 cell viability; format: cell-based
Source text: (§1) We investigated the cytotoxic effects of acrylonitrile derivatives 2(a–c) on human lung carcinoma (A549, CCL‐185) cells purchased from American Culture Collection and human breast carcinoma (MCF‐7) cells purchased from Republic of Turkey Ministry of Agriculture and Forestry Şap Institute, (HUKUK, 00092502), In addition, mouse fibroblast cells (L929, CCL‐1) purchased from American Culture Collection were used to observe the effects of the compounds on healthy cells. In 25 T Flask, A549 cells were grown in dulbecco's modified eagle's medium, MCF‐7, and L929 cells were grown in eagle's minimum essential medium (EMEM), 10% fetal bovine serum and 1% Penicillin‐Streptomycin at 37 °C in a 5% CO2 and 100% humidified incubator. Cell proliferation was checked every day. Cells were taken into the experiment when the cell density reached 70% to 80%. (See Supporting Information for experimental preparation of biological studies).
(§2) The compounds 2a, 2b, and 2c were dissolved in 99.8% Dimethyl sulfoxide (DMSO) respectively, as
(§3) 10 mM main stock. To prepare the doses of acrylonitrile compounds used in the experiment to be
(§4) applied to the cells, five different concentrations of 31.25; 62.5; 125; 250 and 500 μM were prepared
(§5) by diluting the main stock solutions (10 mM) with the medium selected according to the cells. 5-
(§6) Fluorouracil (5-FU) was selected as a positive control in the study. After the 5-FU main stock solution
(§7) was dissolved with DMSO to be 10 mM, the concentrations to be used were diluted with the selected
(§8) media and made ready for the experimental plan. The concentrations used for 5-FU were prepared in
(§9) the same doses used for acrylonitrile derivatives. For the negative control group, groups containing
(§10) only media and no substance were used. Prepared acrylonitrile compounds and 5-FU concentrations
(§11) were added to the wells in three replicates for each dose, and their effects on cell viability at 24 and 48
(§12) Trypan blue solution (Gibco, 1525061) was used to distinguish between living and dead cells in the
(§13) study. Trypan blue passes uncontrollably through the membrane of dead cells that have lost their cell
(§14) membrane integrity and stains the cell blue. Living cells, on the other hand, are not stained because
(§15) Live cell counts were performed using trypan blue using a
(§16) cell counter (Logos Luna II).
(§17) In order to detach the cells adhering to the flasks from the bottom, 500 μL of 0.25% Trypsin-EDTA
(§18) (Gibco, 15400054) solution was added and treated for five minutes.
(§19) detach from the bottom under an inverted microscope (Zeiss Primovert, Germany), medium containing
(§20) 10% FBS was added. After centrifugation at 300 g for 5 minutes and discarding the medium, 1 mL of
(§21) medium was added and the cells were seeded into 96-well culture dishes as 1x10^4 cells in 100 μL per
(§22) Cell Counting Kit 8 (CCK8; Medchem, 146436) was used to determine cell viability. After adding 20 μL
(§23) of CCK8 solution to each well in the dark, 96-well culture dishes were wrapped with aluminum foil and
(§24) kept in a CO2 incubator at 37 °C for 2 hr. Then, it was automatically read with a microplate reader
(§25) (Chromate) at 450 and 630 nm wavelengths. The following formula was used to determine cell
(§26) % Viability = (Sample Well−Blank) (Negative Control−Blank)×100 (1)
(§27) The half-maximal inhibitory concentration (IC50) was calculated as 50% cell death causing dose
(§28) compared to the control group. All data are given as the mean percent fraction of control ± SEM.
(§29) Statistical analysis was done by one-way analysis of variance (ANOVA), followed by Tukey’s multiple
(§30) comparison tests. IBM SPSS Statistics 22 was used to utilize statistical analysis. […]

[2] = Cytotoxicity on healthy cells, CCK8 cell viability; format: cell-based, mouse; conditions: mouse, L929 mouse fibroblast cells, read-out: Cytotoxic activity IC50
Source text: as §1, §2, §3, §4, §5, §6, §7, §8, §9, §10, §11, §12, §13, §14, §15, §16, §17, §18, §19, §20, §21, §22, §23, §24, §25, §26, §27, §28, §29, §30

[3] = system: human lung carcinoma (A549, CCL‐185) cells; experiment: Cytotoxicity, CCK8 cell viability; format: cell-based; conditions: for IC50: Homo sapiens, read-out: Cytotoxic activity IC50
Source text: as §1, §2, §3, §4, §5, §6, §7, §8, §9, §10, §11, §12, §13, §14, §15, §16, §17, §18, §19, §20, §21, §22, §23, §24, §25, §26, §27, §28, §29, §30

[4] = system: human breast carcinoma (MCF‐7) cells; experiment: Cytotoxicity, CCK8 cell viability; format: cell-based; conditions: for IC50: Homo sapiens, MCF7, read-out: Cytotoxic activity IC50
Source text: as §1, §2, §3, §4, §5, §6, §7, §8, §9, §10, §11, §12, §13, §14, §15, §16, §17, §18, §19, §20, §21, §22, §23, §24, §25, §26, §27, §28, §29, §30

[5] = system: Candida albicans (ATCC-10231); experiment: Agar diffusion, zone of inhibition; format: cell-based; conditions: C.albicans, antibiotics at 5 mg mL^−1
Source text: (§31) The antibacterial and antifungal activities were reported utilizing the method described by the Clinical & Laboratory Standards Institute.^[ [31], [32] ^] Agar diffusion method was used to determine the antimicrobial activity of the synthesized substances. The media used were mueller hinton agar (MHA) for bacteria and sabouraud‐dextrose agar (SDA) for fungi (Merck), as recommended by the manufacturer.
(§32) The synthesized compounds were initially investigated for their antimicrobial activity to elucidate the potential therapeutic utility against various pathogenic microbes using the agar plate diffusion method. The compounds were tested at a concentration of 50 mg mL^−1, and the antibiotics (ampicillin, kanamycin, and amphotericin B) were used at 5 mg mL^−1. […] K.pneumoniae and B.cereus were resistant to ampicillin, while they were susceptible to kanamycin with inhibition values of 30 and 26 mm, respectively. No antimicrobial activity of the compounds was observed against E.faecalis, S.typhimurium, K.pneumoniae, and for the fungus compared to Amphotericin B (20 mm). […]
(§33) ATCC: American Type Culture Collection; NRRL: Northern Regional Research Laboratory The compounds 2(a-c) obtained could only be completely solubilised with dimethyl sulphoxide (DMSO) and the highest possible stock solutions of 50 mg.mL-1 were prepared. To these wells 50 μl of the previously prepared substances were transferred using sterile micropipette tips. For comparison, Ampicillin and kanamycin antibiotics for bacteria and Amphotericin B antibiotics for fungus were used as positive controls and DMSO was used as negative control. The prepared petri plates were kept at +4°C for about 1 hour and then the bacterial cultures were incubated at 37°C for 18-24 hours and mould cultures at 27-30°C for 48-72 hours. The zones formed were measured millimetrically with callipers. The experiments were performed with three repetitions. […]

[6] = system: Candida albicans (ATCC-10231); experiment: MBC/MFC by sub-culture from wells without growth; format: cell-based; conditions: ATCC10231, C.albicans
Procedure: (§34) ATCC: American Type Culture Collection; NRRL: Northern Regional Research Laboratory The compounds 2(a-c) obtained could only be completely solubilised with dimethyl sulphoxide (DMSO) and the highest possible stock solutions of 50 mg.mL-1 were prepared. […]
(§35) 3.1. Determination of Minimum Inhibition Concentration (MIC)
(§36) The minimum inhibition concentration (MIC) values of the compounds 2(a-c) against the test bacteria used in the study were determined according to the broth microdilution method.[1-2] MHB or SDB was used as test medium and bacterial and yeast suspensions were prepared at 0.5 Mc Farland concentration for each test bacteria. Double layer serial dilutions were prepared in "U" type 96-well microtiter plates. Medium+bacteria suspensions containing only medium in the first row, medium+bacteria in the second row and the final concentrations of the synthesised substances in the other rows between 25 mg.mL-1 and […] were added to the wells with a final volume of 200
(§37) μL. Ampicillin, Kanamycin and Amphotericin B standard antibiotics were used as positive controls.
(§38) Bacteria were incubated at 37±0.1 °C and C. albicans at 30±0.1 °C for 24-48 hours and the lowest concentration without growth was determined as MIC. Tests were performed in two parallel runs and mean values were given as a result. […]

[7] = system: Bacillus cereus (ATCC-10876); experiment: Agar diffusion, zone of inhibition; format: cell-based; conditions: B.cereus, antibiotics at 5 mg mL^−1
Source text: as §31
The synthesized compounds were initially investigated for their antimicrobial activity to elucidate the potential therapeutic utility against various pathogenic microbes using the agar plate diffusion method. The compounds were tested at a concentration of 50 mg mL^−1, and the antibiotics (ampicillin, kanamycin, and amphotericin B) were used at 5 mg mL^−1. […] K.pneumoniae and B.cereus were resistant to ampicillin, while they were susceptible to kanamycin with inhibition values of 30 and 26 mm, respectively. No antimicrobial activity of the compounds was observed against E.faecalis, S.typhimurium, K.pneumoniae, and for the fungus compared to Amphotericin B (20 mm).
(§39) Bacillus cereus (ATCC-10876) […]
as §33

[8] = system: Bacillus cereus (ATCC-10876); experiment: Broth microdilution MIC; format: cell-based; conditions: B.cereus
Procedure: as §39, §34, §35, §36, §37, §38

[9] = system: Klebsiella pneumoniae (ATCC-70063); experiment: Agar diffusion, zone of inhibition; format: cell-based; conditions: K.pneumoniae, antibiotics at 5 mg mL^−1
Source text: as §31, §32
Klebsiella pneumoniae (ATCC-70063)
as §33

[10] = system: Bacillus cereus (ATCC-10876); experiment: MBC by sub-culture from wells without growth; format: cell-based; conditions: B.cereus
Procedure: as §39, §34, §35, §36, §37
Bacteria were incubated at 37±0.1 °C and C. albicans at 30±0.1 °C for 24-48 hours and the lowest concentration without growth was determined as MIC. Tests were performed in two parallel runs and mean values were given as a result. In order to estimate “the minimum bactericidal/fungicidal concentrations (MBC/MFC) of the synthesised acrylonitrile derivatives “needed to indicate […] killing of the original inoculum,” 10 μl was taken from the wells with no observed growth and further sub-cultured onto their agar media (MHA and SDA for bacterial and fungal strains, respectively).[3] […]

Structure (SMILES): O=c1[nH]cc(F)c(=O)[nH]1 [5‐FU, 5‐Fluorouracil, reference compound]
- decrease in cell viability ([1]; L929, 24 h, 31.25 μM): 45%
- decrease in cell viability ([1]; L929, 24 h, 62.5 μM): 45%
- decrease in cell viability ([1]; L929, 24 h, 125 μM): 51%
- decrease in cell viability ([1]; L929, 24 h, 250 μM): 62%
- decrease in cell viability ([1]; L929, 24 h, 500 μM): 93%
- decrease in cell viability ([1]; L929, 48 h, 31.25 μM): 50%
- decrease in cell viability ([1]; L929, 48 h, 62.5 μM): 64%
- decrease in cell viability ([1]; L929, 48 h, 125 μM): 68%
- decrease in cell viability ([1]; L929, 48 h, 250 μM): 80%
- decrease in cell viability ([1]; L929, 48 h, 500 μM): 93%
- IC50 at 24 h ([2]; L929, 24 h): 109 µM
- IC50 at 48 h ([2]; L929, 48 h): 33 µM
- suppressive effect on cell proliferation / viability ([3]; A549, 24 h, 31.25 to 500 μM): did not show any suppressive effect
- decrease in cell viability ([3]; A549, 48 h, 250 μM): 17%
- decrease in cell viability ([3]; A549, 48 h, 500 μM): 77%
- IC50 ([3]; A549, 24 h): > 500 µM
- IC50 ([3]; A549, 48 h): 386 µM
- IC50 ([4]; MCF‐7, 24 h): 250 µM
- IC50 ([4]; MCF‐7, 48 h): 102 µM
- decrease in cell viability ([4]; MCF‐7, 24 h, 31.25 μM): 23%
- decrease in cell viability ([4]; MCF‐7, 24 h, 62.5 μM): 23%
- decrease in cell viability ([4]; MCF‐7, 24 h, 125 μM): 34%
- decrease in cell viability ([4]; MCF‐7, 24 h, 250 μM): 50%
- decrease in cell viability ([4]; MCF‐7, 24 h, 500 μM): 76%
- decrease in cell viability ([4]; MCF‐7, 48 h, 31.25 μM): 46%
- decrease in cell viability ([4]; MCF‐7, 48 h, 62.5 μM): 47%
- decrease in cell viability ([4]; MCF‐7, 48 h, 125 μM): 52%
- decrease in cell viability ([4]; MCF‐7, 48 h, 250 μM): 74%
- decrease in cell viability ([4]; MCF‐7, 48 h, 500 μM): 95%

Structure (SMILES): C[C@@H]1[C@H](O)[C@@H](C)/C=C/C=C/C=C/C=C/C=C/C=C/C=C/[C@H](O[C@@H]2O[C@H](C)[C@@H](O)[C@H](N)[C@@H]2O)C[C@@H]2O[C@](O)(C[C@@H](O)C[C@@H](O)[C@H](O)CC[C@@H](O)C[C@@H](O)CC(=O)O[C@H]1C)C[C@H](O)[C@H]2C(=O)O [Amphotericin B, reference compound]
- zone of inhibition [5]: 20 ± 0.71 mm
- zone of inhibition at 5 mg/mL ([5]; Candida albicans, ATCC10231): 20 mm
- MBC [6]: 250 µg/mL (≈ 271 µM)

- MIC [8]: 31.25 µg/mL (≈ 64.5 µM)
Structure (SMILES): NC[C@H]1O[C@H](O[C@H]2[C@H](O)[C@@H](O[C@H]3O[C@H](CO)[C@@H](O)[C@H](N)[C@H]3O)[C@H](N)C[C@@H]2N)[C@H](O)[C@@H](O)[C@@H]1O [Kanamycin, reference compound]
- zone of inhibition [7]: 26 ± 1.41 mm
- zone of inhibition ([7]; listed as kanamycin): 26 mm
- zone of inhibition [9]: 30 ± 0 mm
- zone of inhibition ([9]; listed as kanamycin): 30 mm
- MBC [10]: 62.5 µg/mL (≈ 129 µM)
